Results as given in patent publication US20050148627A1, “Benzopyran compounds for use in the treatment and prevention of inflammation related conditions” (priority 2003, published 2005).
Values joined by “and” are separate entries in the source; they are usually repeats but may differ in a detail not shown here. Equal values may be shown once.

Legend:
COX-1 = COX-1 (Homo sapiens, UniProt P23219); assay: biochemical
Sequence of COX-1 (P23219 24-599): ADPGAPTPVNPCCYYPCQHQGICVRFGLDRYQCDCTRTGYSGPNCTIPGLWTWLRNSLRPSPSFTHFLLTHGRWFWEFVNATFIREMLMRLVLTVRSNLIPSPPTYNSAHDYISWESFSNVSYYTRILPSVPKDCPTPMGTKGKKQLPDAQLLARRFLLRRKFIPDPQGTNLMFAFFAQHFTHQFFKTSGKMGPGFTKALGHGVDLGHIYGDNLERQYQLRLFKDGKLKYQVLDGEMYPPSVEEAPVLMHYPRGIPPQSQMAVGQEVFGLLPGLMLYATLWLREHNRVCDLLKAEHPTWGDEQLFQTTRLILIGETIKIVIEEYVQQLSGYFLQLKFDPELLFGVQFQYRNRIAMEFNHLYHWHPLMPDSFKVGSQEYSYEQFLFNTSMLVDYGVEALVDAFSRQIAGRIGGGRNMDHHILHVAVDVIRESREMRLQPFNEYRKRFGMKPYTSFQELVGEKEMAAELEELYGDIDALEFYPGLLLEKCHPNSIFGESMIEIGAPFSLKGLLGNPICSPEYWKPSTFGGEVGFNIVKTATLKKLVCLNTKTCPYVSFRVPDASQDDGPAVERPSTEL

Row | melting point | IC50 (COX-1) | SMILES
1 | 184 to 186.5 °C |  | CC(C)c1cccc(-c2c(Cl)ccc3c2C=C(C(=O)O)C(C(F)(F)F)O3)c1 (stereo not drawn) [Example 871, 6-Chloro-5-(3-isopropylphenyl)-2-(trifluoromethyl)-2H-chromene-3-carboxylic acid]
2 | 90 to 95 °C |  | CCc1ccc(Oc2cc3c(cc2Cl)C=C(C(=O)O)[C@@H](C(F)(F)F)O3)cc1 (single isomer, unassigned) [Example 939]
3 | 156 to 158 °C (dec.) |  | CC(F)(F)c1ccc2c(c1)C=C(C(=O)O)C(C(F)(F)F)O2 (stereo not drawn) [Example 34d, 6-(1,1-difluoroethyl)-2-(trifluoromethyl)-2H-chromene-3-carboxylic acid]
4 | 143.5 to 146.5 °C |  | CCCc1ccc(Oc2ccc3c(c2)OC(C(F)(F)F)C(C(=O)O)=C3)cc1 (stereo not drawn) [Example 713, 7-(4-Propylphenoxy)-2-(trifluoromethyl)-2H-chromene-3-carboxylic acid]
5 | 130 to 131 °C |  | CCc1ccc(Oc2cc3c(cc2Cl)C=C(C(=O)O)[C@H](C(F)(F)F)O3)cc1 (single isomer, unassigned) [Example 931]
6 | > 250 °C |  | O=C(O)C1=Cc2c(ccc3occ(-c4ccc(Br)cc4)c23)OC1C(F)(F)F (stereo not drawn) [Example 922, 1-Para-bromophenyl-7-(trifluoromethyl)-7H-furo[3,2-f]chromene-8-carboxylic acid]
7 | 171.5 to 172.5 °C |  | CCc1c(Cl)ccc2c1C=C(C(=O)O)C(C(F)(F)F)O2 (stereo not drawn) [Example 873, 6-Chloro-5-ethyl-2-(trifluoromethyl)-2H-chromene-3-carboxylic acid]
8 | > 250 °C |  | O=C(O)C1=Cc2cc3occ(-c4ccc(Br)cc4)c3cc2OC1C(F)(F)F (stereo not drawn) [Example 921, 3-(4-bromophenyl)-6-(trifluoromethyl)-6H-furo[2,3-g]chromene-7-carboxylic acid]
9 | 208.5 to 210 °C |  | Nc1c(Cl)ccc2c1C=C(C(=O)O)C(C(F)(F)F)O2 (stereo not drawn) [Example 876, 5-Amino-6-chloro-2-(trifluoromethyl)-2H-chromene-3-carboxylic acid]
10 | 96.5 to 98 °C |  | CCc1cnc(Oc2cc3c(cc2Cl)C=C(C(=O)O)C(C(F)(F)F)O3)nc1 (stereo not drawn) [Example 864, 6-Chloro-7-[(5-ethylpyrimidin-2-yl)oxy]-2-(trifluoromethyl)-2H-chromene-3-carboxylic acid]
11 |  | 24.4 µM and 21.6 µM and 9.14 µM and 10.7 µM | CCc1cc(OC(F)(F)F)cc2c1OC(C(F)(F)F)C(C(=O)O)=C2 (stereo not drawn) [Example 21g, 8-ethyl-6-(trifluoromethoxy)-2-(trifluoromethyl)-2H-chromene-3-carboxylic acid]
12 |  | 24.1 µM | O=C(O)C1=Cc2cc(Cl)c(Cc3ccccc3)cc2O[C@@H]1C(F)(F)F (single isomer, unassigned) [Example 9m]
13 |  | > 100 µM | CC(c1ccccc1)c1ccc2c(c1)OC(C(F)(F)F)C(C(=O)O)=C2 (stereo not drawn) [Example 37b, 7-(1-phenylethyl)-2-(trifluoromethyl)-2H-chromene-3-carboxylic acid]
14 |  | 5.59 µM and 10.3 µM | Cc1ccc(Cc2cc3c(cc2Cl)C=C(C(=O)O)C(C(F)(F)F)O3)cc1 (stereo not drawn) [Example 9x, 6-chloro-7-(4-methylbenzyl)-2-(trifluoromethyl)-2H-chromene-3-carboxylic acid]
15 | 229 to 231 °C |  | O=C(O)C1=Cc2c(ccc(Cl)c2-c2ccccc2)OC1C(F)(F)F (stereo not drawn) [Example 872, 6-Chloro-5-phenyl-2-(trifluoromethyl)-2H-chromene-3-carboxylic acid]
16 |  | > 100 µM | CCOc1cc(Br)cc2c1OC(C(F)(F)F)C(C(=O)O)=C2 (stereo not drawn) [Example 26, 6-bromo-8-ethoxy-2-(trifluoromethyl)-2H-chromene-3-carboxylic acid]
17 | 191 to 193 °C |  | O=C(O)C1=Cc2c(ccc(Cl)c2-c2ccco2)OC1C(F)(F)F (stereo not drawn) [Example 867, 6-Chloro-5-(2-furyl)-2-(trifluoromethyl)-2H-chromene-3-carboxylic acid]
18 |  | 16.1 µM and 13.1 µM | CCCCC(C)(C)c1cc2c(cc1Cl)C=C(C(=O)O)C(C(F)(F)F)O2 (stereo not drawn) [Example 110, 6-chloro-7-(1,1-dimethylpentyl)-2-(trifluoromethyl)-2H-chromene-3-carboxylic acid]
19 |  | 74.4 µM and 81.2 µM | Cc1c(OCC(C)(C)C)c(Cl)cc2c1OC(C(F)(F)F)C(C(=O)O)=C2 (stereo not drawn) [Example 3g, 6-chloro-8-methyl-7-(neopentyloxy)-2-(trifluoromethyl)-2H-chromene-3-carboxylic acid]
20 |  | 70.8 µM | CCCCSc1cc2c(cc1Cl)C=C(C(=O)O)C(C(F)(F)F)O2 (stereo not drawn) [Example 7f, 7-(butylthio)-6-chloro-2-(trifluoromethyl)-2H-chromene-3-carboxylic acid]
21 |  | > 100 µM | Cc1cc(Cl)cc2c1O[C@@H](C(F)(F)F)C(C(=O)O)=C2 (single isomer, unassigned) [Example 21u]
22 |  | 4.69 µM | Cc1ccc(Cc2cc3c(cc2Cl)C=C(C(=O)O)C(C(F)(F)F)O3)cc1Cl (stereo not drawn) [Example 9y, 6-chloro-7-(3-chloro-4-methylbenzyl)-2-(trifluoromethyl)-2H-chromene-3-carboxylic acid]
23 |  | 42.7 µM | O=C(O)C1=Cc2cc(-c3ccc(F)cc3)ccc2NC1C(F)(F)F (stereo not drawn) [Example 48, 6-(4-fluorophenyl)-2-(trifluoromethyl)-1,2-dihydroquinoline-3-carboxylic acid]

Row | melting point | IC50 (COX-1) | SMILES
24 |  | 193 µM and > 100 µM | COc1c(Cl)c(Cl)c(Br)c2c1OC(C(F)(F)F)C(C(=O)O)=C2 (stereo not drawn) [Example 30, 5-bromo-6,7-dichloro-8-methoxy-2-(trifluoromethyl)-2H-chromene-3-carboxylic acid]
25 |  | > 500 µM | COc1ccc2c(c1OC)OC(C(F)(F)F)C(C(=O)O)=C2 (stereo not drawn) [Example 4a, 7,8-dimethoxy-2-(trifluoromethyl)-2H-chromene-3-carboxylic acid]
26 |  | > 100 µM and 57.2 µM | CC1CC(C)CN(c2cc3c(cc2Cl)C=C(C(=O)O)C(C(F)(F)F)O3)C1 (stereo not drawn) [Example 8a, 6-chloro-7-(3,5-dimethylpiperidin-1-yl)-2-(trifluoromethyl)-2H-chromene-3-carboxylic acid]
27 |  | < 0.686 µM and < 0.137 µM and 0.14 µM | Nc1ccc(Oc2cccc3c2OC(C(F)(F)F)C(C(=O)O)=C3)c(F)c1 (stereo not drawn) [Example 25b, 8-(4-amino-2-fluorophenoxy)-2-(trifluoromethyl)-2H-chromene-3-carboxylic acid]
28 | 222.5 to 224 °C |  | Cc1cccc(-c2c(Cl)ccc3c2C=C(C(=O)O)C(C(F)(F)F)O3)c1 (stereo not drawn) [Example 870, 6-Chloro-5-(3-methylphenyl)-2-(trifluoromethyl)-2H-chromene-3-carboxylic acid]
29 |  | > 500 µM | COc1c(Cl)cc2c(c1OC)OC(C(F)(F)F)C(C(=O)O)=C2 (stereo not drawn) [Example 4b, 6-chloro-7,8-dimethoxy-2-(trifluoromethyl)-2H-chromene-3-carboxylic acid]
30 |  | < 0.137 µM | Cc1c(Cc2ccccc2)c(Cl)cc2c1OC(C(F)(F)F)C(C(=O)O)=C2 (stereo not drawn) [Example 14a, 7-benzyl-6-chloro-8-methyl-2-(trifluoromethyl)-2H-chromene-3-carboxylic acid]
31 |  | 14.6 µM and 12.9 µM | O=C(O)C1=Cc2cc(Br)c(Cc3ccccc3)cc2OC1C(F)(F)F (stereo not drawn) [Example 41, 7-benzyl-6-bromo-2-(trifluoromethyl)-2H-chromene-3-carboxylic acid]
32 |  | 6.75 µM and 12.1 µM | Cc1c(C)c2c(c(C)c1Cl)C=C(C(=O)O)C(C(F)(F)F)O2 (stereo not drawn) [Example 104]
33 |  | 20.5 µM and 13.6 µM | CCCc1cc(OC(F)(F)F)cc2c1OC(C(F)(F)F)C(C(=O)O)=C2 (racemic) [Example 21i, 8-propyl-6-(trifluoromethoxy)-2-(trifluoromethyl)-2H-chromene-3-carboxylic acid]
34 |  | > 100 µM | O=C(O)C1=Cc2cc(Cl)c(OCc3ccccc3)cc2OC1C(F)(F)F (stereo not drawn) [Example 2f, 7-(benzyloxy)-6-chloro-2-(trifluoromethyl)-2H-chromene-3-carboxylic acid]
35 |  | > 100 µM and 187 µM | COc1cc2c(cc1Cl)C=C(C(=O)O)C(C(F)(F)F)O2 (stereo not drawn) [Example 2i, 6-chloro-7-methoxy-2-(trifluoromethyl)-2H-chromene-3-carboxylic acid]
36 |  | > 100 µM | O=C(O)C1=Cc2ccc(C(=O)c3cccnc3)cc2OC1C(F)(F)F (stereo not drawn) [Example 11, 7-(pyridin-3-ylcarbonyl)-2-(trifluoromethyl)-2H-chromene-3-carboxylic acid]
37 |  | > 500 µM | COc1ccc(Br)c2c1OC(C(F)(F)F)C(C(=O)O)=C2 (stereo not drawn) [Example 24a, 5-bromo-8-methoxy-2-(trifluoromethyl)-2H-chromene-3-carboxylic acid]
38 |  | > 100 µM and 185 µM and 204 µM and 165 µM and 128 µM | Cc1cc(C)c2c(c1)C=C(C(=O)O)C(C(F)(F)F)O2 (racemic) [Example 32a, 6,8-dimethyl-2-(trifluoromethyl)-2H-chromene-3-carboxylic acid]
39 |  | 1.51 µM | Cc1cc(Cl)ccc1Cc1cc2c(cc1Cl)C=C(C(=O)O)C(C(F)(F)F)O2 (stereo not drawn) [Example 9p, 6-chloro-7-(4-chloro-2-methylbenzyl)-2-(trifluoromethyl)-2H-chromene-3-carboxylic acid]
40 |  | 23.4 µM and 27 µM and 9.26 µM and 11 µM | CCc1cc(OC(F)(F)F)cc2c1O[C@H](C(F)(F)F)C(C(=O)O)=C2 (single isomer, unassigned) [Example 21k]
41 |  | 48.4 µM and 62.6 µM | O=C(O)C1=Cc2c(Cl)ccc(OCc3ccccc3)c2OC1C(F)(F)F (stereo not drawn) [Example 23c, 8-(benzyloxy)-5-chloro-2-(trifluoromethyl)-2H-chromene-3-carboxylic acid]
42 |  | 69.4 µM | C=C(c1ccccc1)c1ccc2c(c1)OC(C(F)(F)F)C(C(=O)O)=C2 (stereo not drawn) [Example 37a, 7-(1-phenylvinyl)-2-(trifluoromethyl)-2H-chromene-3-carboxylic acid]
43 |  | > 100 µM | COCCOc1ccc2c(c1)OC(C(F)(F)F)C(C(=O)O)=C2 (stereo not drawn) [Example 5e, 7-(2-methoxyethoxy)-2-(trifluoromethyl)-2H-chromene-3-carboxylic acid]
44 |  | 5.71 µM | CCC#Cc1cc(OC(F)(F)F)cc2c1OC(C(F)(F)F)C(C(=O)O)=C2 (stereo not drawn) [Example 21q, 8-but-1-ynyl-6-(trifluoromethoxy)-2-(trifluoromethyl)-2H-chromene-3-carboxylic acid]
45 |  | > 100 µM | COCCOc1cc2c(cc1Cl)C=C(C(=O)O)C(C(F)(F)F)O2 (stereo not drawn) [Example 2h, 6-chloro-7-(2-methoxyethoxy)-2-(trifluoromethyl)-2H-chromene-3-carboxylic acid]
